Assay results from the OligoGym collection.
Oligonucleotides are given in HELM: sugar(base)linkage, 5' to 3'; d 2'-deoxyribose, r ribose, m 2'-O-methylribose, p phosphate. ss, as = sense and antisense strand

target: TMEM63B; assay: reporter assay of Huesken 2005; details: siRNA
Further: test concentration or dose not given here.

First: RNA1{r(G)p.r(G)p.r(C)p.r(C)p.r(U)p.r(G)p.r(C)p.r(U)p.r(C)p.r(A)p.r(U)p.r(G)p.r(U)p.r(A)p.r(C)p.r(A)p.r(U)p.r(G)p.r(A)p.d(T)p.d(T)}|RNA2{r(U)p.r(C)p.r(A)p.r(U)p.r(G)p.r(U)p.r(A)p.r(C)p.r(A)p.r(U)p.r(G)p.r(A)p.r(G)p.r(C)p.r(A)p.r(G)p.r(G)p.r(C)p.r(C)p.d(T)p.d(G)}$$$RNA1{StrandType:ss}|RNA2{StrandType:as}$
Second: RNA1{r(G)p.r(G)p.r(G)p.r(A)p.r(G)p.r(A)p.r(A)p.r(C)p.r(A)p.r(G)p.r(G)p.r(A)p.r(C)p.r(A)p.r(A)p.r(C)p.r(C)p.r(A)p.r(U)p.d(T)p.d(T)}|RNA2{r(A)p.r(U)p.r(G)p.r(G)p.r(U)p.r(U)p.r(G)p.r(U)p.r(C)p.r(C)p.r(U)p.r(G)p.r(U)p.r(U)p.r(C)p.r(U)p.r(C)p.r(C)p.r(C)p.d(C)p.d(A)}$$$RNA1{StrandType:ss}|RNA2{StrandType:as}$
The normalised inhibition (eCFP-eYFP dual reporter) of the first is higher: 71.9% for the first, 65.9% for the second.

First: RNA1{r(G)p.r(G)p.r(G)p.r(A)p.r(U)p.r(G)p.r(G)p.r(G)p.r(G)p.r(C)p.r(U)p.r(C)p.r(C)p.r(U)p.r(G)p.r(G)p.r(G)p.r(A)p.r(G)p.d(T)p.d(T)}|RNA2{r(C)p.r(U)p.r(C)p.r(C)p.r(C)p.r(A)p.r(G)p.r(G)p.r(A)p.r(G)p.r(C)p.r(C)p.r(C)p.r(C)p.r(A)p.r(U)p.r(C)p.r(C)p.r(C)p.d(C)p.d(A)}$$$RNA1{StrandType:ss}|RNA2{StrandType:as}$
Second: RNA1{r(G)p.r(G)p.r(G)p.r(C)p.r(U)p.r(C)p.r(C)p.r(U)p.r(G)p.r(G)p.r(G)p.r(A)p.r(G)p.r(C)p.r(U)p.r(C)p.r(A)p.r(G)p.r(G)p.d(T)p.d(T)}|RNA2{r(C)p.r(C)p.r(U)p.r(G)p.r(A)p.r(G)p.r(C)p.r(U)p.r(C)p.r(C)p.r(C)p.r(A)p.r(G)p.r(G)p.r(A)p.r(G)p.r(C)p.r(C)p.r(C)p.d(C)p.d(A)}$$$RNA1{StrandType:ss}|RNA2{StrandType:as}$
The normalised inhibition (eCFP-eYFP dual reporter) of the first is higher: 43.3% for the first, 36.3% for the second.

First: RNA1{r(G)p.r(G)p.r(G)p.r(U)p.r(U)p.r(C)p.r(C)p.r(U)p.r(A)p.r(G)p.r(C)p.r(U)p.r(C)p.r(C)p.r(C)p.r(A)p.r(C)p.r(G)p.r(U)p.d(T)p.d(T)}|RNA2{r(A)p.r(C)p.r(G)p.r(U)p.r(G)p.r(G)p.r(G)p.r(A)p.r(G)p.r(C)p.r(U)p.r(A)p.r(G)p.r(G)p.r(A)p.r(A)p.r(C)p.r(C)p.r(C)p.d(C)p.d(G)}$$$RNA1{StrandType:ss}|RNA2{StrandType:as}$
Second: RNA1{r(G)p.r(G)p.r(U)p.r(G)p.r(G)p.r(C)p.r(C)p.r(G)p.r(C)p.r(G)p.r(C)p.r(C)p.r(C)p.r(A)p.r(U)p.r(C)p.r(C)p.r(U)p.r(C)p.d(T)p.d(T)}|RNA2{r(G)p.r(A)p.r(G)p.r(G)p.r(A)p.r(U)p.r(G)p.r(G)p.r(G)p.r(C)p.r(G)p.r(C)p.r(G)p.r(G)p.r(C)p.r(C)p.r(A)p.r(C)p.r(C)p.d(A)p.d(C)}$$$RNA1{StrandType:ss}|RNA2{StrandType:as}$
The normalised inhibition (eCFP-eYFP dual reporter) of the first is higher: 57.9% for the first, 49.4% for the second.

First: RNA1{r(G)p.r(U)p.r(A)p.r(C)p.r(A)p.r(U)p.r(G)p.r(A)p.r(U)p.r(C)p.r(C)p.r(G)p.r(G)p.r(C)p.r(U)p.r(C)p.r(U)p.r(G)p.r(C)p.d(T)p.d(T)}|RNA2{r(G)p.r(C)p.r(A)p.r(G)p.r(A)p.r(G)p.r(C)p.r(C)p.r(G)p.r(G)p.r(A)p.r(U)p.r(C)p.r(A)p.r(U)p.r(G)p.r(U)p.r(A)p.r(C)p.d(A)p.d(T)}$$$RNA1{StrandType:ss}|RNA2{StrandType:as}$
Second: RNA1{r(G)p.r(U)p.r(A)p.r(C)p.r(U)p.r(A)p.r(C)p.r(A)p.r(C)p.r(A)p.r(A)p.r(A)p.r(G)p.r(C)p.r(U)p.r(G)p.r(G)p.r(A)p.r(G)p.d(T)p.d(T)}|RNA2{r(C)p.r(U)p.r(C)p.r(C)p.r(A)p.r(G)p.r(C)p.r(U)p.r(U)p.r(U)p.r(G)p.r(U)p.r(G)p.r(U)p.r(A)p.r(G)p.r(U)p.r(A)p.r(C)p.d(T)p.d(C)}$$$RNA1{StrandType:ss}|RNA2{StrandType:as}$
The normalised inhibition (eCFP-eYFP dual reporter) of the first is lower: 46.8% for the first, 58.4% for the second.
